The values that follow come from patent US8501732B2, “Aminomethyl quinolone compounds” (Hoffmann-La Roche Inc., priority 2011, dated 2013).

In one experiment the target is JNK1 (Homo sapiens (Human), UniProt P45983). In words: In Vitro JNK1 Assay (TR-FRET, phosphorylation of GST-c-Jun). In kind it is biochemical. To be noted: 0.2 nM active JNK1 kinase, 26.7 nM GST-c-Jun, 2 μM ATP, 30 min at room temperature. The method, boiled down:
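GST-c-Jun (residues 1-79) phosphorylation by JNK1 in 50 mM HEPES pH 7.0, MgCl2, 1 mM DTT, 0.1 mM Na3VO4, 0.2 mg/mL BSA, 30 min at room temperature. Stopped with EDTA plus anti-phospho-c-Jun antibody and read by TR-FRET 1 hr later. IC50 from percent inhibition over 10 serial dilutions.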

Experiment [1] relates to phospho(Ser63)-c-jun in HK-2 cells. The experiment is described as follows: Cell-Based Assay for JNK Inhibitors (in-cell ELISA, phospho(Ser63)-c-jun after TNFα). The note with it: HK-2 cells (human proximal tubule cells), 60 minutes compound, then 10 ng/mL TNFα for 30 minutes. How it is done: Cell-Based Assay for JNK Inhibitors
The cell-based assay employed the in-cell ELISA method to determine the ability of compounds to prevent the generation of phospho(Ser63)-c-jun in HK-2 cells (human proximal tubule cells) in response to stimulation with tumor necrosis factor α (TNFα). In brief, for quantification of phospho(Ser63)-c-jun, the cells (in 96-well format) were fixed and permeablized then incubated sequentially with a rabbit anti-phospho-c-jun First Antibody specific for the presence of the phospho-Ser63 epitope and a donkey anti-rabbit IgG Second Antibody linked to horseradish peroxidase (HRP) for colorimetric quantitation of binding. […] Blank wells received no TNFα stimulation or compound. Additional Control wells received TNFα stimulation, but no compound.
Stock cultures of HK-2 cells (ATCC, Manassas, Va.) were grown under a 5% CO2/[…] atmosphere at 37 degrees C. in Keratinocyte-SFM medium (KSFM, Invitrogen, Grand Island, N.Y.) containing 5 μg/L epidermal growth factor and 5 mg/L bovine pituitary extract (both supplied with the medium), additionally supplemented with 10% (v/v) fetal calf serum (FCS; Invitrogen, Grand Island, N.Y.) and 1% (v/v) antibiotic-antimycotic (ABAM: Sigma, St. Louis, Mo.). For assays, cells were seeded in collagen coated 96-well polystyrene plates (BD Biosciences, Franklin Lakes, N.J.) at a density of 40,000 cells/well and cultured for 24 h in the same medium (100 μL/well) followed by a further 16-24 h in 100 μL of similar medium, but without FCS. […] Plates were then allowed to stand at room temperature for 20 minutes before being washed with 200 μL/well of PBS. (Further steps were performed immediately or the plates were stored at 4 degrees C. and the assay completed the next day.) To each well was added 100 μL 1% (v/v) TritonX-100 (Sigma, St. Louis, Mo.) in PBS followed by 20 minutes standing at room temperature, washing with 200 μL/well PBS, the addition of 100 μL/well of Quenching buffer (1% (v/v) hydrogen peroxide (Sigma, St. Louis, Mo.) and 0.1% (w/v) sodium azide (Fisher Scientific, Fair Lawn, N.J.)) in PBS and a further 20 minutes at room temperature. Plates were then washed twice with 200 μL/well of 0.1% (v/v) Tween-20 (Teknova, Hollister, Calif.) in PBS before addition of 200 μL/well of 2% BSA/0.1% Tween-20 in PBS and a further 1 hour at room temperature. […] After a further one hour, rabbit anti-phospho-c-jun-Ser63 is added directly to the solution in the Blank wells resulting in 1:250 dilution of this antibody. Plates were then placed on a slowly rotating platform at 4 degrees C. overnight. Wells were then washed thrice with 200 μL/well PBS/0.1% Tween-20. After addition of the third wash, the plates were placed on a slowly rotating platform for 15 minutes at room temperature. The final PBS/Tween20 wash was then replaced with 100 μL/well of donkey anti-rabbit HRP-labeled Second Antibody (Jackson ImmunoResearch Laboratory, West Grove, Pa.) diluted 1:10,000 in Antibody Dilution Buffer and the plates placed on a slowly rotating platform for 1 hour at room temperature. Wells were then washed four times with 200 μL/well PBS/0.1% Tween-20, including slow rotation for 30 minutes for the third wash and 10 minutes for the final wash. The wells were then washed once with 200 μL PBS without Tween-20. […] Absorbance was determined at a 450 nm wavelength using a spectrophotometer (Molecular Devices SpectraMax 250).
On the technique in general: In an ELISA, binding on a coated surface is turned into a signal by an enzyme label.

As usually defined, the IC50 is the concentration that gives 50% inhibition. Read a low IC50 as greater potency in that assay. As usually defined, the EC50 is the concentration needed to bring the measured effect to its halfway point. Low values mean greater potency, high ones weaker potency.

JNK1, sequence (P45983 whole entry, the tested form may be a part): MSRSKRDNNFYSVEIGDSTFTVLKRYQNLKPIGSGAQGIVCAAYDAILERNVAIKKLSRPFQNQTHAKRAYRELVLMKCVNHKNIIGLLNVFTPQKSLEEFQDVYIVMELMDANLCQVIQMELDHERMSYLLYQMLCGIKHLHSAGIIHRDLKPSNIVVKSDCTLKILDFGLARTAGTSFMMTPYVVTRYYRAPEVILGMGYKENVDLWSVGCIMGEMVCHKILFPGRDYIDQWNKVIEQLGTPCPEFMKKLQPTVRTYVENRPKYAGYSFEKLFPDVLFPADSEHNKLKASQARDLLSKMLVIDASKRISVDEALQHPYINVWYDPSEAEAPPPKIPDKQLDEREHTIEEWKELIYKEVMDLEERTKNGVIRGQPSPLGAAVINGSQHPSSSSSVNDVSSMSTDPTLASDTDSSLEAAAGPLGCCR

`O=C(NCc1cn(-c2ccccc2)c2cc(Cl)ccc2c1=O)c1cnc(N2CCC(CO)CC2)s1` [Example I-93, 2-(4-Hydroxymethyl-piperidin-1-yl)-thiazole-5-carboxylic acid (7-chloro-4-oxo-1-phenyl-1,4-dihydro-quinolin-3-ylmethyl)-amide] displayed a half-inhibitory concentration (IC50) against JNK1 of 33 nM. In experiment [1], this compound had an EC50 of 100000 nM.
On the same counts, the results for `O=C(NCc1c(-c2ncco2)n(-c2ccccc2)c2cc(Cl)ccc2c1=O)c1ccc(N2CCCCC2)nc1` [Example I-7, 3,4,5,6-Tetrahydro-2H-[1,2′]bipyridinyl-5′-carboxylic acid (7-chloro-2-oxazol-2-yl-4-oxo-1-phenyl-1,4-dihydro-quinolin-3-ylmethyl)-amide] are 14 nM and 4500 nM.
The corresponding values for `COC(=O)c1c(CNC(=O)c2ccccc2)c(=O)c2ccc(Cl)cc2n1-c1ccccc1` [Example I-150, 7-Chloro-3-[(benzoylamino)-methyl]-4-oxo-1-phenyl-1,4-dihydro-quinoline-2-carboxylic acid methyl ester] are 12 nM and 7700 nM.
The corresponding values for `COC(=O)c1c(CNC(=O)c2ccc(Cl)cc2)c(=O)c2ccc(Cl)cc2n1-c1ccccc1` [Example I-132, 7-Chloro-3-[(4-chloro-benzoylamino)-methyl]-4-oxo-1-phenyl-1,4-dihydro-quinoline-2-carboxylic acid methyl ester] are 15 nM and 9200 nM.
For the compound `O=C(NCc1cn(-c2ccccc2)c2cc(Cl)ccc2c1=O)c1ccc(N2CCC(CCO)CC2)nc1` [Example I-63, 4-(2-Hydroxy-ethyl)-3,4,5,6-tetrahydro-2H-[1,2′]bipyridinyl-5′-carboxylic acid (7-chloro-4-oxo-1-phenyl-1,4-dihydro-quinolin-3-ylmethyl)-amide], on JNK1, half-maximal inhibition (IC50) required 17 nM. In experiment [1], this compound came in with an EC50 of 3800 nM.
On to `COC(=O)c1c(CNC(=O)c2cccc(Cl)c2)c(=O)c2ccc(Cl)cc2n1-c1ccccc1` [Example I-142, 7-Chloro-3-[(3-chloro-benzoylamino)-methyl]-4-oxo-1-phenyl-1,4-dihydro-quinoline-2-carboxylic acid methyl ester], for which, on JNK1, the IC50 was 17 nM. Moreover, the EC50 in experiment [1] came out at 9700 nM.
For the compound `COC(=O)c1c(CNC(=O)c2ccc(C(C)(C)C)cc2)c(=O)c2ccc(OC)cc2n1-c1ccccc1` [Example I-163, 3-[(4-tert-Butyl-benzoylamino)-methyl]-7-methoxy-4-oxo-1-phenyl-1,4-dihydro-quinoline-2-carboxylic acid methyl ester], the IC50 at JNK1 was found to be 47 nM. The EC50 in experiment [1] was 14000 nM.
`O=C(NCc1cn(-c2ccccc2)c2cc(Cl)ccc2c1=O)c1ccn(Cc2ccccc2Cl)c(=O)c1` [Example I-39, 1-(2-Chloro-benzyl)-2-oxo-1,2-dihydro-pyridine-4-carboxylic acid (7-chloro-4-oxo-1-phenyl-1,4-dihydro-quinolin-3-ylmethyl)-amide] registered an IC50 on JNK1 of 76 nM. Besides, in experiment [1], a half-maximal effect (EC50) was put at 10000 nM.
The corresponding values for `COC(=O)c1c(CNC(=O)c2ccc(-c3nnc[nH]3)cc2)c(=O)c2ccc(Cl)cc2n1-c1ccccc1` [Example I-111, 7-Chloro-4-oxo-1-phenyl-3-{[4-(4H-[1,2,4]triazol-3-yl)-benzoylamino]-methyl}-1,4-dihydro-quinoline-2-carboxylic acid methyl ester] are 5 nM and 1300 nM.
The corresponding values for `COC(=O)c1c(CNC(=O)c2cnn(C)c2)c(=O)c2ccc(Cl)cc2n1-c1ccccc1` [Example I-121, 7-Chloro-3-{[(1-methyl-1H-pyrazole-4-carbonyl)-amino]-methyl}-4-oxo-1-phenyl-1,4-dihydro-quinoline-2-carboxylic acid methyl ester] are 15 nM and 1800 nM.
The corresponding values for `COC(=O)c1c(CNC(=O)c2ccc(F)c(F)c2)c(=O)c2ccc(OC)cc2n1-c1ccccc1` [Example I-162, 7-Methoxy-3-[(3,4-difluorobenzoylamino)-methyl]-4-oxo-1-phenyl-1,4-dihydro-quinoline-2-carboxylic acid methyl ester] are 39 nM and 38000 nM.
`COC(=O)c1c(CNC(=O)c2ccc(N3CCOCC3)cc2)c(=O)c2ccc(Cl)cc2n1-c1ccccc1` [Example I-123, 7-Chloro-3-[(4-morpholin-4-yl-benzoylamino)-methyl]-4-oxo-1-phenyl-1,4-dihydro-quinoline-2-carboxylic acid methyl ester] came in with an IC50 on JNK1 of 16 nM. In experiment [1], this compound yielded an EC50 of 2200 nM.
The corresponding values for `COC(=O)c1c(CNC(=O)c2cccc(OC)c2)c(=O)c2ccc(OC)cc2n1-c1ccccc1` [Example I-161, 7-Methoxy-3-[(3-methoxy-benzoylamino)-methyl]-4-oxo-1-phenyl-1,4-dihydro-quinoline-2-carboxylic acid methyl ester] are 32 nM and 18000 nM.
With `O=C(NCc1cn(-c2ccccc2)c2cc(Cl)ccc2c1=O)c1ccc2scnc2c1` [Example I-42, Benzothiazole-5-carboxylic acid (7-chloro-4-oxo-1-phenyl-1,4-dihydro-quinolin-3-ylmethyl)-amide], the half-maximal inhibitory concentration (IC50) against JNK1 worked out at 89 nM. The compound also came in with an EC50 in experiment [1] of 25000 nM.
For the compound `O=C(NCc1c(-c2ncco2)n(-c2ccccc2)c2ncccc2c1=O)c1ccc(N2CCC(CO)CC2)nc1` [Example I-12, 4-Hydroxymethyl-3,4,5,6-tetrahydro-2H-[1,2′]bipyridinyl-5′-carboxylic acid (2-oxazol-2-yl-4-oxo-1-phenyl-1,4-dihydro-[1,8]naphthyridin-3-ylmethyl)-amide], inhibition on JNK1 was half-maximal at 7 nM (IC50). This compound also registered a concentration for a half-maximal effect (EC50) in experiment [1] of 2500 nM.
On the same counts, the results for `COC(=O)c1c(CNC(=O)c2ccc(S(N)(=O)=O)cc2)c(=O)c2ccc(C(F)(F)F)nc2n1-c1ccccc1` [Example I-154, 4-Oxo-1-phenyl-3-[(4-sulfamoyl-benzoylamino)-methyl]-7-trifluoromethyl-1,4-dihydro-[1,8]naphthyridine-2-carboxylic acid methyl ester] are 26 nM and 9900 nM.
Take `NC(=O)N1CCN(c2ccc(C(=O)NCc3cn(-c4ccccc4)c4cc(Cl)ccc4c3=O)cn2)CC1` [Example I-73, 4-{5-[(7-Chloro-4-oxo-1-phenyl-1,4-dihydro-quinolin-3-ylmethyl)-carbamoyl]-pyridin-2-yl}-piperazine-1-carboxylic acid amide]: at JNK1, half-maximal inhibition (IC50) required 29 nM. In experiment [1], a half-maximal response (EC50) required 100000 nM.
The corresponding values for `CN(C)c1cc(C(=O)NCc2cn(-c3ccccc3)c3cc(Cl)ccc3c2=O)ccn1` [Example I-41, N-(7-Chloro-4-oxo-1-phenyl-1,4-dihydro-quinolin-3-ylmethyl)-2-dimethyl amino-isonicotinamide] are 88 nM and 28000 nM.
`O=C(NCc1cn(-c2ccccc2Cl)c2cc(Cl)ccc2c1=O)c1ccc(N2CCOCC2)nc1` [Example I-100] displayed an IC50 at JNK1 of 90 nM. Also, a half-maximal effect in experiment [1] (EC50) was put at 29000 nM.
Regarding `COC(=O)c1c(CNC(=O)c2ccc(Cl)c(Cl)c2)c(=O)c2ccc(Cl)cc2n1-c1ccccc1` [Example I-144, 7-Chloro-3-[(3,4-dichloro-benzoylamino)-methyl]-4-oxo-1-phenyl-1,4-dihydro-quinoline-2-carboxylic acid methyl ester], at JNK1, the IC50 is 48 nM. The EC50 in experiment [1] was 8800 nM.
